# pIC50: −log10 of the molar value. Entries after “also recorded” stand apart in the source; their conditions may differ.
# Legend:
# AR-DBD+hinge / ARE dsDNA = target: T1, AR-DBD+hinge / ARE dsDNA (Homo sapiens, UniProt P10275); test: EMSA (gel shift) assay; format: biochemical; parameters: His6 (N); made in house; host or cells: E. coli BL21 (DE3)
# T1 sequence (P10275 558-689): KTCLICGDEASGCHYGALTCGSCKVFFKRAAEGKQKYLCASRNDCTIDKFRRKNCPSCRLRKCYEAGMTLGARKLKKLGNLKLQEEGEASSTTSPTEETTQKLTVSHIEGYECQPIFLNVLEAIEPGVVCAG
# Description: The plasmid encoding the AR-DBD+hinge was transformed into BL21 (DE3). BL21 cells designated for expression of biotin-labeled AR-DBD+hinge were co-transformed with the Pan4 AR-DBD+hinge (ampicillin selection) and biotin ligase expression vectors (pBir-Acm, chloramphenicol selection). Single colonies were grown in 2 liters of LB media supplemented with 50 μg/ml ampicillin and 35 μg/ml chloramphenicol (where appropriate) to A600 nm=0.6 before induction with 0.1 mM isopropyl β-D-1-thiogalactopyranoside for 3 h at 37° C. Cultures expressing the AR-DBD with the biotinylation sequence were simultaneously supplemented with 0.150 mM biotin during the induction step. Cell pellets were resuspended in ˜20 ml of 50 mM Tris-HCl, pH 8.0, 300 mM NaCl, 5% glycerol (Buffer A) supplemented with 10 mM imidazole and incubated with 0.1 mg/ml chicken egg white lysozyme (Sigma™) and 0.1 mM PMSF protease inhibitor for 30 min on ice. Cell lysis was achieved by sonication, followed by centrifugation at 13,000×g for 30 min at 4° C. The supernatant was rotated with 2 ml of nickel-agarose beads (GE Healthcare™) for 1 h at 4° C. and then directly loaded onto a Poly-Prep 10-ml gravity chromatography column (Bio-Rad™). Washing was performed with 2×4 ml of Buffer A supplemented with 20 mM imidazole. Pure proteins were eluted in 500-μl fractions with 2 ml of Buffer A containing 250 mM imidazole. […]
# AR AF2 site = AR AF2 site (Homo sapiens, UniProt P10275); test: SRC2-3 peptide displacement assay (fluorescence polarization); format: binding
# AR AF2 site, sequence (P10275 664-920 limits assumed): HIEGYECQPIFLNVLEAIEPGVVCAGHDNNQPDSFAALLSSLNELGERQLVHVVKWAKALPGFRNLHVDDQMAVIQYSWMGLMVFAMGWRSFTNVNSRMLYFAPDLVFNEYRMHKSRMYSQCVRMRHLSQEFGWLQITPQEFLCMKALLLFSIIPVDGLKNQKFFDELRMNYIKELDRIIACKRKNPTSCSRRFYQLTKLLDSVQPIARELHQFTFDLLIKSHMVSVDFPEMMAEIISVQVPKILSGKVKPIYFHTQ
# Description: 6. SRC2-3 peptide displacement assay: The AR AF2 specific peptide displacement was assayed as previously described.
# [1] = target: T2, AR hormone binding site (recombinant wild type LBD) (Rattus norvegicus, UniProt P15207); test: Androgen displacement assay (Polar Screen Androgen Receptor Competitor Green Assay Kit)
# T2 construct: displace DHT from the ABS site of recombinant wild type LBD
# T2 sequence (P15207 651-882 limits assumed): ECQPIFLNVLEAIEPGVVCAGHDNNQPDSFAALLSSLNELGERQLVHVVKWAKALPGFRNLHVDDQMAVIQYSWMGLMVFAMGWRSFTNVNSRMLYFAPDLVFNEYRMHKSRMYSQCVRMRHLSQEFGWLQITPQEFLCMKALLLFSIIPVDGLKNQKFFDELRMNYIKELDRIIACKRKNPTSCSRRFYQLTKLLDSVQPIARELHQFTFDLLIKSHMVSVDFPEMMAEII
# Description: 5. Androgen displacement assay: The androgen displacement was assessed with the Polar Screen Androgen Receptor Competitor Green Assay Kit as per the instructions of the manufacturer (Lack, Axerio-Cilies et al. 2011).
# The ability of the above chemicals to displace DHT from the ABS site of recombinant wild type LBD was measured using a fluorescent polarization assay (PolarScreen™, Life Technologies) at various concentrations.
# [2] = target: AR ligand binding domain (LBD) (Homo sapiens, UniProt P10275); test: Biolayer interferometry (BLI) assay, small molecule binding to AR
# Description: 4. Biolayer interferometry (BLI) assay: The direct reversible interaction between small molecules and the AR was measured as previously described (Lack, Axerio-Cilies et al. 2011).
# AR Q592A mutant = AR Q592A mutant (Homo sapiens, UniProt P10275, Q592A); test: ARR3tk-luciferase reporter assay in PC3 cells, AR Q592A
# AR Q592A mutant, sequence (P10275 whole entry Q592A, the tested form may be a part): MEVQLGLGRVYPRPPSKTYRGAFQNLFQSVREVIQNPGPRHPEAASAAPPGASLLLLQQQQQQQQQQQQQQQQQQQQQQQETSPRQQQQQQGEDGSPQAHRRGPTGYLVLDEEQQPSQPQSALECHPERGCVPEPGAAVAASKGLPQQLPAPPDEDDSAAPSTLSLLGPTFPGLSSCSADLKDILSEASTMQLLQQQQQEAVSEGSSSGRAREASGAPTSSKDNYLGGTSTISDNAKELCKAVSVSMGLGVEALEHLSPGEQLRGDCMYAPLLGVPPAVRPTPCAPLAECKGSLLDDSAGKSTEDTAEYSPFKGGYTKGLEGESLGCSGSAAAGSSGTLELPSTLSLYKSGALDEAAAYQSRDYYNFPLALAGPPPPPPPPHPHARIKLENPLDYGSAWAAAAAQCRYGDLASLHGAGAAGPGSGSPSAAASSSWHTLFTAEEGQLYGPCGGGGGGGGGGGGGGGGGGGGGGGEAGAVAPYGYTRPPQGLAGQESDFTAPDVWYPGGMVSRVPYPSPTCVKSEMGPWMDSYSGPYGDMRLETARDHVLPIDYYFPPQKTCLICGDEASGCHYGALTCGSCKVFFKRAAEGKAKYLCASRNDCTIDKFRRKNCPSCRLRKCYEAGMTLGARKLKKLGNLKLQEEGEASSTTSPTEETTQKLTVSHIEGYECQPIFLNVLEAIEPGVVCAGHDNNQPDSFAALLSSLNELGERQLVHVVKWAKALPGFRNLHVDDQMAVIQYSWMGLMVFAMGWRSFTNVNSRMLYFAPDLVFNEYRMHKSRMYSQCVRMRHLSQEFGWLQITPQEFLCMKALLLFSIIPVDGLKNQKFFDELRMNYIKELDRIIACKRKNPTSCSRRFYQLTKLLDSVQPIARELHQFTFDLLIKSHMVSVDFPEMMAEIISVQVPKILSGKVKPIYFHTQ
# AR AF1 = test: AF1 assay (CREB and Gal4 plasmid in PC3 cells); format: cell-based
# Source text: As there are other known binding sites in AR including the hormone binding site (HBS), activation function-2 (AF2) site, binding function 3 (BF3) and N-terminal activation function-1 (AF1) site, we utilized other assays to rule out possible binding to those sites. […] Then we used an AF1 assay to measure whether the potency of this compound comes from the inhibition of AF1 transactivation.
# [3] = tested on: MDV3100-resistant LNCaP cells (MR49F); test: Cell viability (MTS) assay, MDV3100 (Enzalutamide)-resistant cells; format: cell-based, human; settings: 0.1 nM R1881
# Description: 1. Cell Culture: LNCaP and PC3 human prostate cancer cells were obtained from American Type Culture Collection (ATCC, Manassas, Va.) and grown in RPMI 1640 medium supplemented with 5% fetal bovine serum (FBS) (Invitrogen). […]. All cells were maintained at 37° C. in 5% CO2.
# 7. Cell viability assay: The PC3, LNCaP, and MDV3100-resistant cells were plated at 3,000 cells per well in RPMI 1640 containing 5% charcoal stripped serum (CSS) in a 96-well plate, treated with 0.1 nM R1881 and compounds (0-25 μM) for 96 hrs.
# AR target genes = test: Microarray genetic profile in LNCaP cells
# Stability in media = format: physicochemical
# LNCaP xenograft = test: Castration-resistant LNCaP xenografts in mice; settings: 100 mg/kg i.p. twice daily, 4 weeks
Compound,protein-DNA complex formation (gel shift) (AR-DBD+hinge / ARE dsDNA),displacement of peptide in the AF2 binding site (AR AF2 site),androgen displacement from AR HBS [1],binding in the C-terminal LBD (BLI) [2],pIC50 (AR Q592A mutant),inhibition of CREB and Gal4 (AF1) (AR AF1),"inhibition of cell growth, MDV3100/Enzalutamide-resistant cells [3]",change of expression of genotoxin-responsive genes (AR target genes; 31 genes),"FKBP5 gene expression fold change vs R1881 treatment only (AR target genes; 14449 400 nM + 1 nM R1881, 24 h, p 0.08)",ATF3 gene expression fold change (AR target genes; 14449 400 nM + R1881),CASP1 gene expression fold change (AR target genes; 14449 400 nM + R1881),XPC gene expression fold change (AR target genes; 14449 400 nM + R1881),stability in media (Stability in media),toxic effect on animals (LNCaP xenograft),"LNCaP xenograft tumor volume (LNCaP xenograft; castrated mice, 100 mg/kg)","serum PSA (LNCaP xenograft; castrated mice, 100 mg/kg)"
"c1ccc(-c2csc(N3CCOCC3)n2)cc1 [Compound 14228, 4-(4-phenylthiazol-2-yl)morpholine]",could not prevent protein-DNA complex formation,Neither does it displace the peptide,does not displace androgen,no binding,5.22 to 5.52,no inhibition,strongly inhibits,,,,,,,,,
Brc1ncn(-c2csc(N3CCOCC3)n2)c1Br [Compound 14449],could not prevent protein-DNA complex formation,,,,5.22 to 5.52,,,None of the genotoxin-responsive genes showed any significant change,0.81,0.99,1.00,1.03,fully stable in media,no observable toxic effect,reduces tumor volume; also recorded: inhibited to levels comparable with enzalutamide treatment,abolishes PSA production; also recorded: inhibited to levels comparable with enzalutamide treatment

# Reference: patent US10011573B2, “Human androgen receptor DNA-binding domain (DBD) compounds as therapeutics and methods for their use” (The University of British Columbia, priority 2014, dated 2018)
